Measurements: ChEMBL document CHEMBL1201862, “PubChem BioAssay data set” (2004)
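Results reflect a 48-hour exposure of cells in 96-well plates to compound at five concentrations. Abbreviation: GI50, concentration required for 50% inhibition of growth.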 Calls of active or inactive are those of the source. Cut-off read from the data, not from the text of the source: active = GI50 up to about 1.1 µM and inactive = higher.

Tests used:
Test in all cases: growth of human tumour cells (NCI), 48 h
KM12 = test system: KM12
SNB-19 = test system: SNB-19
NCI-H226 = test system: NCI-H226
ACHN = test system: ACHN
HOP-62 = test system: HOP-62
PC-3 = test system: PC-3
IGROV-1 = test system: IGROV-1
HOP-92 = test system: HOP-92
K562 = test system: K562
786-0 = test system: 786-0
NCI-H23 = test system: NCI-H23
OVCAR-8 = test system: OVCAR-8
HL-60 = test system: HL-60
M14 = test system: M14
HCT-116 = test system: HCT-116
EKVX = test system: EKVX
OVCAR-4 = test system: OVCAR-4
SN12C = test system: SN12C
BT-549 = test system: BT-549

Measured: GI50

CCOC(=O)c1nc2ccc(C(F)(F)F)cc2nc1NCc1ccc(F)cc1
inactive: KM12 58.7 µM | SNB-19 32.6 µM | NCI-H226 29 µM | ACHN 31.6 µM | HOP-62 47.3 µM | PC-3 29.4 µM | IGROV-1 26.5 µM | HOP-92 4.83 µM | K562 24.5 µM | 786-0 30.1 µM | NCI-H23 27.5 µM | OVCAR-8 30.9 µM | HL-60 29.6 µM | M14 48.6 µM | HCT-116 35.9 µM | EKVX 37.8 µM | OVCAR-4 12 µM | SN12C 28.8 µM

C=C(C)C1CC2C(C)=C(OC(C)=O)C1n1c(=O)c3cc4ccccc4cc3c(=O)n12 (stereo not drawn)
inactive: KM12 > 82 µM | SNB-19 > 100 µM | NCI-H226 34.7 µM | ACHN > 82.8 µM | HOP-62 > 100 µM | IGROV-1 > 77.1 µM | HOP-92 28.6 µM | K562 46.2 µM | 786-0 > 95.5 µM | NCI-H23 50.1 µM | OVCAR-8 > 68.7 µM | HL-60 1.41 µM | M14 > 100 µM | HCT-116 > 76.7 µM | EKVX 64.1 µM | OVCAR-4 73.3 µM | SN12C 98.2 µM

c1ccc2c(c1)ccc1nc(-c3ccc4c(c3)OCO4)c3c(c12)CCCC3
inactive: KM12 11.3 µM | BT-549 17 µM | SNB-19 77.8 µM | NCI-H226 73.1 µM | ACHN 20.8 µM | HOP-62 41.9 µM | PC-3 8.75 µM | K562 16.3 µM | 786-0 26.1 µM | NCI-H23 13.8 µM | OVCAR-8 20.2 µM | M14 28.7 µM | HCT-116 15.8 µM | EKVX 37.1 µM | OVCAR-4 13.6 µM | SN12C 26.1 µM

C=CCCC(O)c1cc(C)c(O)c(C)c1 (stereo not drawn)
inactive: KM12 > 100 µM | SNB-19 > 100 µM | NCI-H226 > 100 µM | ACHN > 100 µM | HOP-62 > 100 µM | IGROV-1 > 100 µM | K562 > 100 µM | 786-0 > 100 µM | NCI-H23 > 100 µM | OVCAR-8 > 100 µM | HL-60 > 100 µM | M14 > 100 µM | EKVX > 100 µM | SN12C > 100 µM

CC1(C)NC(=O)N(CCCCCCN2C(=O)NC(C)(C)C2=O)C1=O
inactive: KM12 > 100 µM | SNB-19 97.9 µM | NCI-H226 > 100 µM | ACHN > 100 µM | IGROV-1 > 100 µM | HOP-92 > 100 µM | K562 > 100 µM | 786-0 > 100 µM | NCI-H23 > 100 µM | OVCAR-8 > 100 µM | M14 > 100 µM | HCT-116 > 100 µM | EKVX > 100 µM | OVCAR-4 > 100 µM | SN12C > 100 µM

CC1(C)C2C=CC1(C)C1(CC2)OCCO1 (stereo not drawn)
inactive: KM12 > 100 µM | SNB-19 > 100 µM | NCI-H226 > 100 µM | ACHN > 100 µM | HOP-62 > 100 µM | PC-3 > 100 µM | IGROV-1 > 100 µM | K562 > 100 µM | 786-0 > 100 µM | NCI-H23 > 100 µM | OVCAR-8 > 100 µM | HL-60 > 100 µM | M14 > 100 µM | HCT-116 > 100 µM | OVCAR-4 > 100 µM | SN12C > 100 µM

CSc1nc(C)cc(=O)n1C1OC(COC(C)=O)C(OC(C)=O)C(OC(C)=O)C1OC(C)=O (stereo not drawn)
inactive: KM12 > 100 µM | SNB-19 > 100 µM | NCI-H226 > 100 µM | ACHN > 100 µM | HOP-62 > 10 µM | IGROV-1 > 100 µM | K562 > 100 µM | 786-0 > 100 µM | NCI-H23 > 100 µM | OVCAR-8 > 100 µM | HL-60 > 100 µM | M14 > 100 µM | HCT-116 > 100 µM | EKVX > 100 µM | OVCAR-4 > 100 µM | SN12C > 100 µM

CN1/C(=N\c2ccccc2)S/C1=N/c1ccccc1
inactive: KM12 52.2 µM | SNB-19 > 100 µM | NCI-H226 > 100 µM | ACHN 70.6 µM | HOP-62 > 100 µM | IGROV-1 > 100 µM | HOP-92 10.2 µM | K562 56.5 µM | 786-0 > 100 µM | NCI-H23 40 µM | OVCAR-8 > 100 µM | HL-60 27.2 µM | M14 72.1 µM | HCT-116 47.6 µM | EKVX 60.1 µM | OVCAR-4 59.7 µM
